Entries after “also recorded” stand apart in the source; their conditions may differ. Starred links: 1 amine or outer side, 2 acyl side, 3 side chain; linkers in the order of their positions; H or OH if unused. Groups on a side chain read outwards from the residue. No end group written: not given here. *: point of attachment. miniPEG = miniature polyethylene glycol spacer (mPEG); γGlu = O=C(O)[C@H](CCC(=O)[*:2])N[*:1]; Palmitoyl = CCCCCCCCCCCCCCCC(=O)*
Tests used:
mice [1] = assay: Glucose tolerance test after subcutaneous GLP-1 antagonist; format: in vivo; conditions: s.c. antagonist, 4 h later i.p. glucose 1.5 g/kg, FIGS. 2A, 2B
Protocol: FIGS. 2A & 2B present data from a glucose tolerance test wherein mice are subcutaneously administered the GLP-1 antagonist followed four hours later by intraperitoneal administration of glucose (1.5 g glucose per kg body weight).
C57Bl/6 mice were obtained from Jackson Laboratories. Mice were single-or group-housed on a 12:12 h light-dark cycle at 22° C. with free access to food and water. All studies were approved by and performed according to the guidelines of the Institutional Animal Care and Use Committee of the University of Cincinnati.
For the determination of glucose tolerance, mice were subjected to 6 h of fasting and injected intraperitoneally with glucose. Injections consisted of 1.5 g glucose per kg body weight (25% w/v D-glucose (Sigma) in 0.9% w/v saline). Tail blood glucose levels (mg dL-1) were measured using a hand-held glucometer (FreeStyle Freedom Lite) before 0 min and at 15, 30, 60, and 120 min after injection.
Mice received a subcutaneous injection of peptide (in PBS) either 1, 4, 8, 24, 48, 72, or 120 at varying doses before being challenged with an IP injection of dipeptidyl peptidase-IV-protected Ex-4 (0.65 nmol kg-1). A GTT was performed fifteen minutes after the GLP-1 injection. Tail blood glucose values were obtained as described above.

mice [2] = assay: Blood glucose levels in mice subcutaneously injected with GLP-1 antagonist; format: in vivo; conditions: s.c. 10, 30, 100, 300 nmol/kg, measured at 24, 48, 72 hrs, FIG. 8
From the text: over time, where X=C18-diacid and O=Lys(C18-diacid).

Substance | GLP-1 antagonist activity in glucose tolerance test (mice [1]) | glucose blood levels (mice [2])
DVSRYLEEQAVREFIEWLVRGGPSSGAPPPSK[miniPEG-γE-C16]-OH (DVSRYLEEQAVREFIEWLVRGGPSSGAPPPSK([miniPEG-γGlu-Palmitoyl])-OH) [SEQ ID NO: 16] | full antagonist; also recorded: much higher potency than the GLP-1 antagonist Ex-9-40 | –
X-DVSSYLEEQAVREFIAWLVRGGPSSGAPPPSO-acid [MBX 1407] | – | dose dependent response

Reference: US20240058422A1, “GLUCAGON-LIKE PEPTIDE-1 RECEPTOR ANTAGONISTS” (INDIANA UNIVERSITY RESEARCH AND TECHNOLOGY CORPORATION, priority 2022, published 2024)
